{
  "source": "patent US20250339445A1",
  "about": "“Modulators of Orphan Nuclear Receptors for Treating Pancreatitis, Glioblastoma, Sarcopenia and Stroke” (Emory University, priority 2020, published 2025)",
  "key": {"[1]": {"system": "CD4^+ Th17 cells", "assay": "Modulation of Th17 populations in human PBMCs (flow cytometry)", "format": "cell-based", "conditions": "10 μM, 3 day assay", "experimental": "Human peripheral blood mononuclear cells (PBMCs) were isolated from four healthy donors. Four experiments were conducted and analyzed by flow cytometry over 3 day assay. The control group had no drug treatment, a second were treated with 10 μM Compound 1, a third group was stimulated with PHA/IL-2 without treatment, and the fourth group was stimulated with PHA/IL-2 and incubated with 10 μM Compound 1. […] Further, Compound 1 has no effect on Th17 populations in the absence of PHA/IL-2 stimulation."}, "[2]": {"system": "Sgp130FC mice", "assay": "Sgp130FC mice treated with Compound 1", "format": "in vivo", "conditions": "7.5 mg/kg ip twice/week, four weeks", "experimental": "Sgp130FC mice were injected (ip) with Compound 1 for four weeks (7.5 mg/kg, twice/week). FIGS. 6A-6B show the qRT-PCR analysis of miR-122 levels in plasma (6A), and in the livers (6B) after 4 weeks treatment with saline (as a control) and Compound 1. MicroRNA-18 was used as a negative control and its plasma and liver levels were not affected following treatment with Compound 1. The effect seen on this microRNA in FIG. 6A is not significant compared to the significant effect seen on miR-122.\n(§1) Compound 1 and AntagomiR injections to mice. C57BL/6 male mice, 7-8 weeks old, or Sgp130FC, 9-month-old male mice, were injected i.p. with 7.5 mg/kg Compound 1 dissolved in saline and 3% DMSO. Saline was injected as control. Mice were hydrodynamic tail vain injected with antagomiR-122 or antagomiR-control (negative control) (5 μg/mouse in 1.5 ml saline). Mice were sacrificed according to the legend of the figure describing the experimental results and the livers, white adipose and skeletal muscle tissues were frozen in liquid nitrogen or in OCT embedded frozen blocks, for further RNA and histologic analysis. AntagomiRs were obtained from Sigma Aldrich, see Table 3."}, "[3]": {"system": "Huh7 cells", "assay": "LDH release from Huh7 cells", "format": "cell-based, human", "conditions": "Huh7, 16 h exposure"}, "[4]": {"system": "RORα-regulated genes", "assay": "Modulation of RORα-regulated genes in healthy C57BL/6 mice, single injection", "format": "in vivo", "experimental": "Healthy C57BL/6 mice were injected i.p. once with 7.5 mg/kg Compound 1 or saline control. Mice were sacrificed at 1, 2, and 7 day time points post-injection. miR-122 and Gpase 6 mRNA levels were determined by qRT-PCR for each time point. MicroRNA levels were normalized to RNU6; plasma miR-122 was normalized to spiked in C. elegans miR-39; and mRNA levels were normalized to HPRT.\nas §1"}, "[5]": {"system": "miR-122", "assay": "Expression and secretion of RORα-regulated microRNA in Huh-7 cells (qRT-PCR)", "format": "cell-based, human", "experimental": "Secreted microRNA levels in the medium of Huh-7 cells were analyzed by qRT-PCR and were normalized to spiked C. elegans miR-39. miR-18 and miR-93 served as controls for secreted microRNA and were not affected following Compound 1 addition.\nRNA extraction and quantitative Real-Time PCR analysis. Total RNA, including small RNAs, were isolated from […] of plasma or culture media samples using the miRNeasy Mini kit (Qiagen, Valencia, CA, USA) with 2 minor modifications. First, 200 μl of plasma or culture media were lysed with 1 ml of Qiazol solution. Second, a 50 pmol/1 of synthesized single strand Caenorhabditis elegans miRNA (cel-miR-39) was added as the spike-in control to monitor extraction efficiency. The remainder of the RNA extraction was performed according to the manufacturer's instructions. miRNAs were eluted with 30 μl of RNase-free water. Total RNA, including miRNAs, from cells or tissues were isolated using TRIzol reagent (Invitrogen, Carlsbad, CA, USA). cDNA was synthesized using the Quanta Biosciences qScript™ cDNA Synthesis Kit (95047-100) for mRNA analysis, and using the qScript™ microRNA cDNA Synthesis Kit (95107-100) for miRNAs analysis. qRT-PCR of miRNAs and mRNA was performed using the ABI 7900 HT Real-Time PCR System and a SYBR Green PCR Kit: Quanta Cat. #84018 and #84071 respectively. The fold expression and statistical significance were calculated using the 2-ΔΔ Ct method. All experiments were performed in triplicates."}},
  "note": "Entries after “also recorded” stand apart in the source; their conditions may differ.",
  "data": [
    {"smiles": "O=C1Nc2cc(C(=O)N3CCC(Cc4ccccc4)CC3)ccc2Nc2ccccc21", "note": "[Compound 1]", "values": [
      {"measurement": "Th17 total population in the presence of PHA/IL-2 stimulation", "setting": "[1]; relative to vehicle-control", "result": "decreases the CD4^+ Th17 population"},
      {"measurement": "Total viability of CD4^+ T cells", "setting": "[1]; with or without PHA/IL-2", "result": "no effect"},
      {"measurement": "Liver and muscle triglyceride levels", "setting": "[2]", "result": "reduces liver and muscle triglyceride levels"},
      {"measurement": "MicroRNA-18 plasma and liver levels (negative control)", "setting": "[2]", "result": "not affected"},
      {"measurement": "miR-122 expression (plasma, liver)", "setting": "[2]", "result": "increases miR-122 expression"},
      {"measurement": "Toxicity to the cells as measured by LDH release", "setting": "[3]", "result": "no apparent toxicity"},
      {"measurement": "Gpase6 (G6Pase) mRNA, RORα target gene", "setting": "[4]; 7.5 mg/kg i.p. once, liver, up to 7 days", "result": "significantly up-regulated; also recorded: increase"},
      {"measurement": "miR-18 and miR-126 levels (controls)", "setting": "[4]; 7.5 mg/kg i.p. once, over 7 days", "result": "not affected"},
      {"measurement": "miR-122 levels in plasma and liver", "setting": "[4]; 7.5 mg/kg i.p. once, up to 7 days post-injection", "result": "increased"},
      {"measurement": "Hepatic MIR122 precursors (pri-MIR122 and pre-MIR122)", "setting": "[4]; single administration", "result": "increase"},
      {"measurement": "Mature MIR122 levels in WAT, muscle and heart tissues", "setting": "[4]; single administration", "result": "increased significantly"},
      {"measurement": "Three MIR122 target genes in heart tissue", "setting": "[4]; single administration", "result": "significantly down-regulated"},
      {"measurement": "AldoA, MIR122 target", "setting": "[4]; single administration, liver", "result": "decrease"},
      {"measurement": "Secreted control microRNA (miR-18, miR-93) in Huh-7 medium", "setting": "[5]; 1 μM, 24 hours", "result": "not affected"},
      {"measurement": "Secreted miR-122 level in Huh-7 medium", "setting": "[5]; 1 μM, 24 hours", "result": "increases secretion of miR-122"},
      {"measurement": "Cellular miR-122 levels", "setting": "[5]; Huh7, 16 h exposure", "result": "did not change"},
      {"measurement": "miR-122 secreted to the medium", "setting": "[5]; Huh7, 16 h exposure", "result": "significant miR-122 was secreted to the medium; also recorded: significant amount of MIR122 was secreted to the medium"}
    ]}
  ]
}
